{
  "source": "patent US8304190B2",
  "about": "“Pharmacogenomics of blood pressure lowering agents” (Royal College of Surgeons in Ireland, priority 2005, dated 2012)",
  "key": {"[1]": {"assay": "clinical", "conditions": "human, plasma, Plasma aliskiren on treatment (trough), after four weeks, median (interquartile range)"}, "[2]": {"molecular_target": "T1, plasma renin activity (Homo sapiens, UniProt P00797)", "T1 sequence (P00797 67-406)": "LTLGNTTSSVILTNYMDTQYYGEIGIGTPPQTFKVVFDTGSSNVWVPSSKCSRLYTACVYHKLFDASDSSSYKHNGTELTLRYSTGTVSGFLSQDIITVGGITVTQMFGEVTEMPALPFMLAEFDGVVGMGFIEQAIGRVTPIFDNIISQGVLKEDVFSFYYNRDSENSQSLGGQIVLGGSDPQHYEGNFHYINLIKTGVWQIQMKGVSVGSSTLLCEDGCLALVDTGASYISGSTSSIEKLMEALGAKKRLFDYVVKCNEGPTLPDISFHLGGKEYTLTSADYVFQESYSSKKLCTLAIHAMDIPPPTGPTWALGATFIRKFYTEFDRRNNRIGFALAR", "assay": "Trough plasma renin activity (PRA) after four weeks of treatment", "conditions": "after four weeks, median (interquartile range)"}, "[3]": {"system": "plasma renin activity", "assay": "Trough plasma renin activity (PRA) after four weeks of treatment", "conditions": "for Effect of therapy on PRA: trough PRA after four weeks of treatment; for PRA Percentage Change / PRA on treatment (trough): Losartan 100 mg, after four weeks, median (interquartile range)"}, "[4]": {"conditions": "for Plasma aliskiren on treatment (trough): Aliskiren 300 mg, after four weeks, median (interquartile range)"}, "[5]": {"system": "plasma renin", "conditions": "aliskiren 160-640 mg; unstimulated plasma renin 10-20 pg/ml; cited from earlier work"}, "[6]": {"system": "hypertensive patients", "assay": "Clinic blood pressure, change from baseline with study treatment, by renin −5312 C/T genotype", "type": "in vivo, human", "conditions": "for BP lowering by −5312 C/T genotype: clinic and ambulatory BP, T allele carriers versus CC homozygotes", "source_text": "Tables 2 and 3 show baseline clinic and ambulatory blood pressures, and the changes from baseline with study treatment."}, "[7]": {"conditions": "Ren CC homozygotes, Aliskiren 37.5 mg"}, "[8]": {"conditions": "Ren CC homozygotes, Aliskiren 75 mg"}, "[9]": {"conditions": "Ren CC homozygotes, Aliskiren 150 mg"}, "[10]": {"conditions": "Ren CC homozygotes, Aliskiren 300 mg"}, "[11]": {"conditions": "Ren T allele carriers, Aliskiren 37.5 mg"}, "[12]": {"conditions": "Ren T allele carriers, Aliskiren 75 mg"}, "[13]": {"conditions": "Ren T allele carriers, Aliskiren 150 mg"}, "[14]": {"conditions": "Ren T allele carriers, Aliskiren 300 mg"}},
  "note": "“Also recorded” adds a separate entry of the source. Where two headings read alike, the source gives them in different places.",
  "data": [
    {"smiles": "COCCCOc1cc(C[C@@H](C[C@H](N)[C@@H](O)C[C@H](C(=O)NCC(C)(C)C(N)=O)C(C)C)C(C)C)ccc1OC", "note": "[Aliskiren]", "values": [
      {"measurement": "concentration at 4 weeks", "setting": "[1]; 37.5 mg, Ren CC homozygotes, Aliskiren 37.5 mg", "value": 3.1, "unit": "ng/mL"},
      {"measurement": "concentration at 4 weeks", "setting": "[1]; 37.5 mg, Ren T allele carriers, Aliskiren 37.5 mg", "value": 2.4, "unit": "ng/mL"},
      {"measurement": "concentration at 4 weeks", "setting": "[1]; 75 mg, Ren CC homozygotes, Aliskiren 75 mg", "value": 4.4, "unit": "ng/mL"},
      {"measurement": "concentration at 4 weeks", "setting": "[1]; 75 mg, Ren T allele carriers, Aliskiren 75 mg", "value": 3.9, "unit": "ng/mL"},
      {"measurement": "concentration at 4 weeks", "setting": "[1]; 150 mg, Ren CC homozygotes, Aliskiren 150 mg", "value": 11, "unit": "ng/mL"},
      {"measurement": "concentration at 4 weeks", "setting": "[1]; 150 mg, Ren T allele carriers, Aliskiren 150 mg", "value": 7.1, "unit": "ng/mL"},
      {"measurement": "concentration at 4 weeks", "setting": "[1]; 300 mg, Ren CC homozygotes, Aliskiren 300 mg", "value": 31.9, "unit": "ng/mL"},
      {"measurement": "concentration at 4 weeks", "setting": "[1]; 300 mg, Ren T allele carriers, Aliskiren 300 mg", "value": 20.5, "unit": "ng/mL"},
      {"measurement": "PRA Percentage Change", "setting": "[2]; [7]", "value": "−50.0 (−4.5, −62.7) %"},
      {"measurement": "PRA on treatment (trough)", "setting": "[2]; [7]", "value": "0.32 (0.12, 0.77) ng/ml/h"},
      {"measurement": "PRA Percentage Change", "setting": "[2]; [8]", "value": "−61.7 (−32.7, −82.1) %"},
      {"measurement": "PRA on treatment (trough)", "setting": "[2]; [8]", "value": "0.16 (0.09, 0.46) ng/ml/h"},
      {"measurement": "PRA Percentage Change", "setting": "[2]; [9]", "value": "−77.8 (−70.6, −84.8) %"},
      {"measurement": "PRA on treatment (trough)", "setting": "[2]; [9]", "value": "0.10 (0.06, 0.31) ng/ml/h"},
      {"measurement": "PRA Percentage Change", "setting": "[2]; [10]", "value": "−82.5 (−69.9, −86.7) %"},
      {"measurement": "PRA on treatment (trough)", "setting": "[2]; [10]", "value": "0.17 (0.06, 0.42) ng/ml/h"},
      {"measurement": "PRA Percentage Change", "setting": "[2]; [11]", "value": "−63.8 (−11.2, −77.9) %"},
      {"measurement": "PRA on treatment (trough)", "setting": "[2]; [11]", "value": "0.17 (0.06, 0.89) ng/ml/h"},
      {"measurement": "PRA Percentage Change", "setting": "[2]; [12]", "value": "−54.3 (−44.4, −81.5) %"},
      {"measurement": "PRA on treatment (trough)", "setting": "[2]; [12]", "value": "0.42 (0.20, 0.59) ng/ml/h"},
      {"measurement": "PRA Percentage Change", "setting": "[2]; [13]", "value": "−75.7 (−67.4, −82.1) %"},
      {"measurement": "PRA on treatment (trough)", "setting": "[2]; [13]", "value": "0.17 (0.12, 0.47) ng/ml/h"},
      {"measurement": "PRA Percentage Change", "setting": "[2]; [14]", "value": "−82.5 (−69.9, −86.7) %"},
      {"measurement": "PRA on treatment (trough)", "setting": "[2]; [14]", "value": "0.18 (0.06, 0.51) ng/ml/h"},
      {"measurement": "Effect of therapy on PRA", "setting": "[3]", "value": "suppressed PRA"},
      {"measurement": "Plasma aliskiren on treatment (trough)", "setting": "[4]; Ren CC homozygotes", "value": "31.5 (70.3, 13.5) ng/ml"},
      {"measurement": "Plasma aliskiren on treatment (trough)", "setting": "[4]; Ren T allele carriers", "value": "20.5 (41.0, 17.0) ng/ml"},
      {"measurement": "Reduction of on treatment plasma aliskiren levels amongst T allele carriers", "setting": "[4]; T allele carriers versus CC homozygotes, trough, after 4 weeks of treatment", "value": "20%-30%"},
      {"measurement": "Plasma renin levels in the presence of aliskiren", "setting": "[5]", "value": "300 to 600", "unit": "pg/mL"},
      {"measurement": "Relationship between dose and BP lowering", "setting": "[6]; Aliskiren 37.5 to 300 mg daily", "value": "clear dose response relationship"},
      {"measurement": "BP lowering by −5312 C/T genotype", "setting": "[6]", "value": "BP lowering was greatest amongst CC homozygotes; also recorded: amongst CC homozygotes of the −5312 C/T variant"}
    ]},
    {"smiles": "CCCCc1nc(Cl)c(CO)n1Cc1ccc(-c2ccccc2-c2nn[nH]n2)cc1", "note": "[Losartan]", "values": [
      {"measurement": "PRA Percentage Change", "setting": "[3]; Ren CC homozygotes", "value": "110.32 (15.4, 262.5) %"},
      {"measurement": "PRA on treatment (trough)", "setting": "[3]; Ren CC homozygotes", "value": "1.65 (0.60, 3.20) ng/ml/h"},
      {"measurement": "PRA Percentage Change", "setting": "[3]; Ren T allele carriers", "value": "97.6 (22.2, 363.8) %"},
      {"measurement": "PRA on treatment (trough)", "setting": "[3]; Ren T allele carriers", "value": "1.80 (0.65, 3.30) ng/ml/h"},
      {"measurement": "Effect of therapy on PRA", "setting": "[3]", "value": "increased PRA levels"},
      {"measurement": "BP lowering by −5312 C/T genotype", "setting": "[6]", "value": "greatest with Losartan 100 mg daily amongst T allele carriers; also recorded: amongst T allele carriers of the −5312 C/T variant"}
    ]}
  ]
}
